Numbers after ± are expanded uncertainties.
experiment: activity coefficient (dimensionless); of the first substance listed, at infinite dilution; xn = mol fraction of the nth substance listed; details: 358.15 K; 101 kPa; Liquid; Chromatography; x1 = 0

Point of comparison: `C#CCCC` [1-pentyne] + CCCC[n+]1ccc(C)cc1.O=S(=O)([N-]S(=O)(=O)C(F)(F)F)C(F)(F)F, activity coefficient 1.93 ± 0.13. Against it:
- Cc1ccc(C)cc1 [1,4-dimethylbenzene] + CCCC[n+]1ccc(C)cc1.O=S(=O)([N-]S(=O)(=O)C(F)(F)F)C(F)(F)F — lower, 1.48 ± 0.1
- C=CCCCCC [1-heptene] + CCCC[n+]1ccc(C)cc1.O=S(=O)([N-]S(=O)(=O)C(F)(F)F)C(F)(F)F — higher, 7.99 ± 0.54
- C#CCCCCC [1-heptyne] + CCCC[n+]1ccc(C)cc1.O=S(=O)([N-]S(=O)(=O)C(F)(F)F)C(F)(F)F — higher, 3.29 ± 0.22
- C#CCCCC [1-hexyne] + CCCC[n+]1ccc(C)cc1.O=S(=O)([N-]S(=O)(=O)C(F)(F)F)C(F)(F)F — higher, 2.5 ± 0.17
- C#CCCCCCC [1-octyne] + CCCC[n+]1ccc(C)cc1.O=S(=O)([N-]S(=O)(=O)C(F)(F)F)C(F)(F)F — higher, 4.34 ± 0.3
- C=CCCC [1-pentene] + CCCC[n+]1ccc(C)cc1.O=S(=O)([N-]S(=O)(=O)C(F)(F)F)C(F)(F)F — higher, 4.8 ± 0.33
- COC(C)(C)C [2-methoxy-2-methylpropane] + CCCC[n+]1ccc(C)cc1.O=S(=O)([N-]S(=O)(=O)C(F)(F)F)C(F)(F)F — within error, 2.12 ± 0.14
- CC(C)=O [acetone] + CCCC[n+]1ccc(C)cc1.O=S(=O)([N-]S(=O)(=O)C(F)(F)F)C(F)(F)F — lower, 0.445 ± 0.036
- c1ccccc1 [benzene] + CCCC[n+]1ccc(C)cc1.O=S(=O)([N-]S(=O)(=O)C(F)(F)F)C(F)(F)F — lower, 0.781 ± 0.051
- CCCCO [butan-1-ol] + CCCC[n+]1ccc(C)cc1.O=S(=O)([N-]S(=O)(=O)C(F)(F)F)C(F)(F)F — lower, 1.57 ± 0.1
- C1CCCCCC1 [cycloheptane] + CCCC[n+]1ccc(C)cc1.O=S(=O)([N-]S(=O)(=O)C(F)(F)F)C(F)(F)F — higher, 7.46 ± 0.51
- C1CCCCC1 [cyclohexane] + CCCC[n+]1ccc(C)cc1.O=S(=O)([N-]S(=O)(=O)C(F)(F)F)C(F)(F)F — higher, 6.23 ± 0.42
- C1CCCCCCC1 [cyclooctane] + CCCC[n+]1ccc(C)cc1.O=S(=O)([N-]S(=O)(=O)C(F)(F)F)C(F)(F)F — higher, 9.26 ± 0.63
- C1CCCC1 [cyclopentane] + CCCC[n+]1ccc(C)cc1.O=S(=O)([N-]S(=O)(=O)C(F)(F)F)C(F)(F)F — higher, 4.81 ± 0.33
- CCCCCCCCCC [decane] + CCCC[n+]1ccc(C)cc1.O=S(=O)([N-]S(=O)(=O)C(F)(F)F)C(F)(F)F — higher, 31.9 ± 2.2
- CCOCC [diethyl ether] + CCCC[n+]1ccc(C)cc1.O=S(=O)([N-]S(=O)(=O)C(F)(F)F)C(F)(F)F — within error, 2.09 ± 0.14
- CCCOCCC [dipropyl ether] + CCCC[n+]1ccc(C)cc1.O=S(=O)([N-]S(=O)(=O)C(F)(F)F)C(F)(F)F — higher, 4.38 ± 0.3
- CCO [ethanol] + CCCC[n+]1ccc(C)cc1.O=S(=O)([N-]S(=O)(=O)C(F)(F)F)C(F)(F)F — lower, 1.12 ± 0.07
- CCc1ccccc1 [ethylbenzene] + CCCC[n+]1ccc(C)cc1.O=S(=O)([N-]S(=O)(=O)C(F)(F)F)C(F)(F)F — lower, 1.54 ± 0.1
- CCCCCCC [heptane] + CCCC[n+]1ccc(C)cc1.O=S(=O)([N-]S(=O)(=O)C(F)(F)F)C(F)(F)F — higher, 13.9 ± 1
- C=CCCCC [hex-1-ene] + CCCC[n+]1ccc(C)cc1.O=S(=O)([N-]S(=O)(=O)C(F)(F)F)C(F)(F)F — higher, 5.99 ± 0.41
- CCCCCC [hexane] + CCCC[n+]1ccc(C)cc1.O=S(=O)([N-]S(=O)(=O)C(F)(F)F)C(F)(F)F — higher, 10.8 ± 0.7
- CO [methanol] + CCCC[n+]1ccc(C)cc1.O=S(=O)([N-]S(=O)(=O)C(F)(F)F)C(F)(F)F — lower, 0.935 ± 0.059
- CCCCCCCCC [nonane] + CCCC[n+]1ccc(C)cc1.O=S(=O)([N-]S(=O)(=O)C(F)(F)F)C(F)(F)F — higher, 23.8 ± 1.6

same assay, conditions: 368.15 K; 101 kPa; Liquid; Chromatography; x1 = 0

Point of comparison: `CCOCC` [diethyl ether] + CCCC[n+]1ccc(C)cc1.O=S(=O)([N-]S(=O)(=O)C(F)(F)F)C(F)(F)F, activity coefficient 2.09 ± 0.14. Against it:
- Cc1ccccc1C [1,2-dimethylbenzene] + CCCC[n+]1ccc(C)cc1.O=S(=O)([N-]S(=O)(=O)C(F)(F)F)C(F)(F)F — lower, 1.35 ± 0.09
- Cc1cccc(C)c1 [1,3-dimethylbenzene] + CCCC[n+]1ccc(C)cc1.O=S(=O)([N-]S(=O)(=O)C(F)(F)F)C(F)(F)F — lower, 1.51 ± 0.1
- Cc1ccc(C)cc1 [1,4-dimethylbenzene] + CCCC[n+]1ccc(C)cc1.O=S(=O)([N-]S(=O)(=O)C(F)(F)F)C(F)(F)F — lower, 1.51 ± 0.1
- C=CCCCCC [1-heptene] + CCCC[n+]1ccc(C)cc1.O=S(=O)([N-]S(=O)(=O)C(F)(F)F)C(F)(F)F — higher, 7.76 ± 0.53
- C#CCCCCC [1-heptyne] + CCCC[n+]1ccc(C)cc1.O=S(=O)([N-]S(=O)(=O)C(F)(F)F)C(F)(F)F — higher, 3.3 ± 0.22
- C#CCCCC [1-hexyne] + CCCC[n+]1ccc(C)cc1.O=S(=O)([N-]S(=O)(=O)C(F)(F)F)C(F)(F)F — higher, 2.52 ± 0.17
- C#CCCCCCC [1-octyne] + CCCC[n+]1ccc(C)cc1.O=S(=O)([N-]S(=O)(=O)C(F)(F)F)C(F)(F)F — higher, 4.33 ± 0.29
- C=CCCC [1-pentene] + CCCC[n+]1ccc(C)cc1.O=S(=O)([N-]S(=O)(=O)C(F)(F)F)C(F)(F)F — higher, 4.68 ± 0.32
- C#CCCC [1-pentyne] + CCCC[n+]1ccc(C)cc1.O=S(=O)([N-]S(=O)(=O)C(F)(F)F)C(F)(F)F — within error, 1.95 ± 0.13
- COC(C)(C)C [2-methoxy-2-methylpropane] + CCCC[n+]1ccc(C)cc1.O=S(=O)([N-]S(=O)(=O)C(F)(F)F)C(F)(F)F — within error, 2.15 ± 0.15
- CC(C)=O [acetone] + CCCC[n+]1ccc(C)cc1.O=S(=O)([N-]S(=O)(=O)C(F)(F)F)C(F)(F)F — lower, 0.451 ± 0.036
- c1ccccc1 [benzene] + CCCC[n+]1ccc(C)cc1.O=S(=O)([N-]S(=O)(=O)C(F)(F)F)C(F)(F)F — lower, 0.795 ± 0.052
- CCCCO [butan-1-ol] + CCCC[n+]1ccc(C)cc1.O=S(=O)([N-]S(=O)(=O)C(F)(F)F)C(F)(F)F — lower, 1.46 ± 0.1
- C1CCCCCC1 [cycloheptane] + CCCC[n+]1ccc(C)cc1.O=S(=O)([N-]S(=O)(=O)C(F)(F)F)C(F)(F)F — higher, 7.14 ± 0.49
- C1CCCCC1 [cyclohexane] + CCCC[n+]1ccc(C)cc1.O=S(=O)([N-]S(=O)(=O)C(F)(F)F)C(F)(F)F — higher, 5.94 ± 0.4
- C1CCCCCCC1 [cyclooctane] + CCCC[n+]1ccc(C)cc1.O=S(=O)([N-]S(=O)(=O)C(F)(F)F)C(F)(F)F — higher, 8.74 ± 0.6
- C1CCCC1 [cyclopentane] + CCCC[n+]1ccc(C)cc1.O=S(=O)([N-]S(=O)(=O)C(F)(F)F)C(F)(F)F — higher, 4.6 ± 0.31
- CCCCCCCCCC [decane] + CCCC[n+]1ccc(C)cc1.O=S(=O)([N-]S(=O)(=O)C(F)(F)F)C(F)(F)F — higher, 29.7 ± 2
- CCCOCCC [dipropyl ether] + CCCC[n+]1ccc(C)cc1.O=S(=O)([N-]S(=O)(=O)C(F)(F)F)C(F)(F)F — higher, 4.31 ± 0.29
- CCO [ethanol] + CCCC[n+]1ccc(C)cc1.O=S(=O)([N-]S(=O)(=O)C(F)(F)F)C(F)(F)F — lower, 1.04 ± 0.07
- CCc1ccccc1 [ethylbenzene] + CCCC[n+]1ccc(C)cc1.O=S(=O)([N-]S(=O)(=O)C(F)(F)F)C(F)(F)F — lower, 1.56 ± 0.1
- CCCCCCC [heptane] + CCCC[n+]1ccc(C)cc1.O=S(=O)([N-]S(=O)(=O)C(F)(F)F)C(F)(F)F — higher, 13.2 ± 0.9
- C=CCCCC [hex-1-ene] + CCCC[n+]1ccc(C)cc1.O=S(=O)([N-]S(=O)(=O)C(F)(F)F)C(F)(F)F — higher, 5.82 ± 0.4
- CCCCCC [hexane] + CCCC[n+]1ccc(C)cc1.O=S(=O)([N-]S(=O)(=O)C(F)(F)F)C(F)(F)F — higher, 10.3 ± 0.7
- CO [methanol] + CCCC[n+]1ccc(C)cc1.O=S(=O)([N-]S(=O)(=O)C(F)(F)F)C(F)(F)F — lower, 0.876 ± 0.056
- CCCCCCCCC [nonane] + CCCC[n+]1ccc(C)cc1.O=S(=O)([N-]S(=O)(=O)C(F)(F)F)C(F)(F)F — higher, 22 ± 1.5

— the NIST ThermoML archive (doi:10.1016/j.jct.2009.06.011)
